One data set relates to Artemia salina. Put plainly: Brine shrimp lethality. Type of data set: in vivo. To be noted: for % mortality / dead / live: 10 nauplii, 24 hrs.
In another data set the target is blaCTX-M15 (Escherichia coli O25b:H4, UniProt A0A5R8T042). Put plainly: Beta-lactamase inhibition assay. The data set is classed as biochemical, Salmonella typhi. The note with it: for BL inhibitory activity: nitrocefin, 490 nm.
Chain of blaCTX-M15 (A0A5R8T042 29-291): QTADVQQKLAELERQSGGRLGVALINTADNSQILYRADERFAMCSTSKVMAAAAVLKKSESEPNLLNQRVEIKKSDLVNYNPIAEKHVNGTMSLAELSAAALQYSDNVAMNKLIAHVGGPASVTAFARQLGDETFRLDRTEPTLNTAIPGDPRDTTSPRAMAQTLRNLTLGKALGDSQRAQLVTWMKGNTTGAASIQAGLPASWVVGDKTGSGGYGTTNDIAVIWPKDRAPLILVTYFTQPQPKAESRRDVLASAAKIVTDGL

With `COc1cccc2c1C(=O)c1c(O)c3c(c(O)c1C2=O)C[C@@](O)(C(=O)CO)C[C@@H]3O[C@H]1C[C@H](N)[C@H](O)[C@H](C)O1` [Doxorubicin], the “% mortality” value in the data set on Artemia salina (25 μg/ml) was determined as 10%; with Artemia salina (50 μg/ml), 20%; in the data set on Artemia salina (75 μg/ml), 20%; in the data set on Artemia salina (100 μg/ml), 30%. Also, the dead with Artemia salina (25 μg/ml) is reported as 1; in the data set on Artemia salina (50 μg/ml), 2; in the data set on Artemia salina (75 μg/ml), 2; in the data set on Artemia salina (100 μg/ml), 3. The live in the data set with Artemia salina (25 μg/ml) stood at 9; in the data set on Artemia salina (50 μg/ml) it was 8; in the data set with Artemia salina (75 μg/ml), 8; with Artemia salina (100 μg/ml) it was 7. The LD50 in the data set with Artemia salina (brine shrimp, tested 25-100 μg/ml) was 187 µg/mL.

The term Ki denotes the equilibrium dissociation constant of an inhibitor or competing ligand from its target. On to `O=C(O)[C@H]1/C(=C/CO)O[C@@H]2CC(=O)N21` [abcam Clavulanic acid, Clavulanic acid], for which the affinity at blaCTX-M15 corresponds to a Ki of 38.9 µM. Besides, the BL inhibitory activity on blaCTX-M15 (concentration 0.03 ug/ml) turned out to be 0.9345; at blaCTX-M15 (concentration 0.09 ug/ml), 0.8498; on blaCTX-M15 (concentration 1 ug/ml) it was 0.753; at blaCTX-M15 (concentration 5 ug/ml), 0.623; on blaCTX-M15 (concentration 10 ug/ml), 0.53; on blaCTX-M15 (concentration 50 ug/ml) it was 0.239. Moreover, the values for the BL inhibitory activity on blaCTX-M15 (concentration 100 ug/ml), at blaCTX-M15 (concentration 150 ug/ml) and on blaCTX-M15 (concentration 200 ug/ml) were 0.09, 0.02 and 0.015, respectively.

The record behind these values is article PMC10698858 (Journal of chemical information and modeling, 2023).
